Assay results from patent US6949542B2, “Dihydro-benzo[b][1,4]diazepin-2-one derivatives” (Hoffman-La Roche Inc., priority 2002, dated 2005).

Row | SMILES | melting point [°C]
1 | Cc1cc(-c2cccc(C3=Nc4cc(N(C)C(C)C)c(C(F)(F)F)cc4NC(=O)C3)c2)ccn1 [Example 363, 7-(Isopropyl-methyl-amino)-4-[3-(2-methyl-pyridin-4-yl)-phenyl]-8-trifluoromethyl-1,3-dihydro-benzo[b][1,4]diazepin-2-one] | 207
2 | Cc1cc(-c2cccc(C3=Nc4cc(N5CCCC5)c(C(F)(F)F)cc4NC(=O)C3)c2)ccn1 [Example 365, 4-[3-(2-Methyl-pyridin-4-yl)-phenyl]-7-pyrrolidin-1-yl-8-trifluoromethyl-1,3-dihydro-benzo[b][1,4]diazepin-2-one] | 223
3 | CC(C)CN(C)c1cc2c(cc1C(F)(F)F)NC(=O)CC(c1cccc(-c3ccnc(CO)c3)c1)=N2 [Example 366, 4-[3-(2-Hydroxymethyl-pyridin-4-yl)-phenyl]-7-(isobutyl-methyl-amino)-8-trifluoromethyl-1,3-dihydro-benzo[b][1,4]diazepin-2-one] | 130
4 | CC(C)N(C)c1cc2c(cc1Cl)NC(=O)CC(c1cccc(-c3ccnc(CO)c3)c1)=N2 [Example 367, 8-Chloro-4-[3-(2-hydroxymethyl-pyridin-4-yl)-phenyl]-7-(isopropyl-methyl-amino)-1,3-dihydro-benzo[b][1,4]diazepin-2-one] | 143
5 | CC(C)CN(C)c1cc2c(cc1Cl)NC(=O)CC(c1cccc(-c3ccnc(CO)c3)c1)=N2 [Example 368, 8-Chloro-4-[3-(2-hydroxymethyl-pyridin-4-yl)-phenyl]-7-(isobutyl-methyl-amino)-1,3-dihydro-benzo[b][1,4]diazepin-2-one] | 161
6 | CCCN(C)c1cc2c(cc1C(F)(F)F)NC(=O)CC(c1cccc(-c3ccnc(CO)c3)c1)=N2 [Example 369, 4-[3-(2-Hydroxymethyl-pyridin-4-yl)-phenyl]-7-(methyl-propyl-amino)-8-trifluoromethyl-1,3-dihydro-benzo[b][1,4]diazepin-2-one] | 97

The next lines start with the values.

Row | melting point [°C] | SMILES
7 | 124 | CC(C)N(C)c1cc2c(cc1C(F)(F)F)NC(=O)CC(c1cccc(-c3ccnc(CO)c3)c1)=N2 [Example 370, 4-[3-(2-Hydroxymethyl-pyridin-4-yl)-phenyl]-7-(isopropyl-methyl-amino)-8-trifluoromethyl-1,3-dihydro-benzo[b][1,4]diazepin-2-one]
8 | 223 | CN(C)c1cc2c(cc1C(F)(F)F)NC(=O)CC(c1cccc(-c3ccnc(CO)c3)c1)=N2 [Example 371, 7-Dimethylamino-4-[3-(2-hydroxymethyl-pyridin-4-yl)-phenyl]-8-trifluoromethyl-1,3-dihydro-benzo[b][1,4]diazepin-2-one]
9 | 171 | Cc1cc2c(cc1Cl)NC(=O)CC(c1cccc(-c3ccnc(CNC4CC4)c3)c1)=N2 [Example 378, 8-Chloro-4-[3-(2-cyclopropylaminomethyl-pyridin-4-yl)-phenyl]-7-methyl-1,3-dihydro-benzo[b][1,4]diazepin-2-one]
10 | 150 | O=C1CC(c2cccc(-c3ccnc(CNC4CC4)c3)c2)=Nc2cc(OCC(F)(F)F)c(C(F)(F)F)cc2N1 [Example 379, 4-[3-(2-Cyclopropylaminomethyl-pyridin-4-yl)-phenyl]-7-(2,2,2-trifluoro-ethoxy)-8-trifluoromethyl-1,3-dihydro-benzo[b][1,4]diazepin-2-one]
11 | 182 | O=C1CC(c2cccc(-c3ccnc(CN4CCCC4)c3)c2)=Nc2cc(OCC(F)(F)F)c(C(F)(F)F)cc2N1 [Example 380, 4-[3-(2-Pyrrolidin-1-ylmethyl-pyridin-4-yl)-phenyl]-7-(2,2,2-trifluoro-ethoxy)-8-trifluoromethyl-1,3-dihydro-benzo[b][1,4]diazepin-2-one]
12 | 190 | O=C1CC(c2cccc(-c3ccnc(CN4CCC4)c3)c2)=Nc2cc(OCC(F)(F)F)c(C(F)(F)F)cc2N1 [Example 381, 4-[3-(2-Azetidin-1-ylmethyl-pyridin-4-yl)-phenyl]-7-(2,2,2-trifluoro-ethoxy)-8-trifluoromethyl-1,3-dihydro-benzo[b][1,4]diazepin-2-one]
